Experimental data reported in patent publication EP0542497A1, “Heterocyclic compounds” (THE WELLCOME FOUNDATION LIMITED, priority 1991, dated 1993).
Where two headings read alike, the source gives them in different places.

Tests used:
[1] = target: T1, DHFR (Candida albicans, UniProt P22906); experiment: biochemical
T1 sequence (P22906 1-192): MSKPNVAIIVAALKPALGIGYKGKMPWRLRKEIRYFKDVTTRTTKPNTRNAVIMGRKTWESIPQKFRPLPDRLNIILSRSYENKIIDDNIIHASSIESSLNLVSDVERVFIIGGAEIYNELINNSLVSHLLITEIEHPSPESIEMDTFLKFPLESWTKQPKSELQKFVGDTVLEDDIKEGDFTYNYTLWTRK

[2] = target: T2, human dihydrofolate reductase (Homo sapiens, UniProt P00374); experiment: DHFR I50, human enzyme; type: biochemical
T2 sequence (P00374 1-187): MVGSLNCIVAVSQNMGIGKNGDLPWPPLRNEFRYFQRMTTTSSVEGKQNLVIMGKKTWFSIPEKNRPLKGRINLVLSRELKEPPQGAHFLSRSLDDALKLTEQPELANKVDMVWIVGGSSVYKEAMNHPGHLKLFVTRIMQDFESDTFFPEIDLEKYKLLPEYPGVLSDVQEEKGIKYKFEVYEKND

[3] = target: T2, human dihydrofolate reductase; experiment: Enzyme binding affinity (Ki) for human dihydrofolate reductase, Henderson equation; type: biochemical; conditions: 50mM Sorenson's phosphate buffer, pH 7, 45µM dihydrofolate, 65µM NADPH
[4] = test system: CCRF-CEM T cells; experiment: Cytotoxicity in cell culture (inhibition of cell growth); type: cell-based; conditions: human line, continuous exposure 72 hours
Procedure: (§1) The cytotoxic effects of various compounds were measured by the inhibition of mammalian cell growth in culture. Cell lines were grown in RPMI-1640 media prepared without folic acid but supplemented with 10nM calcium leucovorin, 25mM HEPES and 10% dialysed fetal bovine serum. In the case of human medulloblastoma cells (Daoy), the media (containing undialysed 10% fetal bovine serum) was pretreated with the enzyme thymidine phosphorylase (20 units/ml for 30 mins. at 37°C) to remove endogenous thymidine. Cells were seeded into 96 well microtiter plates (at densities determined to give log phase growth of control cells at the end of the assay) in 150µl of medium and grown at 37°C in a humidified incubator at 6% CO₂ for 24 hours. Compounds were prepared in media at four times the highest concentration to be tested; two-fold serial dilutions were made, and compounds were added to cells. […] The EC₅₀, defined as the concentration of compound required to reduce growth to 50% of the control, was determined from a plot of per cent inhibition versus log concentration. Cells were continuously exposed to inhibitor for 72 hours.

[5] = test system: D98 bone marrow cells; experiment: as above; type: cell-based; conditions: human line, continuous exposure 72 hours
Procedure: as §1

[6] = test system: Daoy medulloblastoma; experiment: as above; type: cell-based; conditions: human line, continuous exposure 72 hours, medium pretreated with thymidine phosphorylase
Procedure: as §1

[7] = test system: Ehrlich ascites carcinoma; experiment: as above; type: cell-based; conditions: mouse line, continuous exposure 72 hours
Procedure: as §1

[8] = test system: GC3C1 colon carcinoma; experiment: as above; type: cell-based; conditions: GC3/C1, human line, continuous exposure 72 hours
Procedure: as §1

[9] = test system: HCT8 colon adenocarcinoma; experiment: as above; type: cell-based; conditions: HCT-8, human line, continuous exposure 72 hours
Procedure: as §1

[10] = test system: KB3-1 epidermoid carcinoma; experiment: as above; type: cell-based; conditions: KB 3-1, human line, continuous exposure 72 hours
Procedure: as §1

[11] = test system: L cells (derived from connective tissue); experiment: as above; type: cell-based; conditions: mouse line, continuous exposure 72 hours
Procedure: as §1

[12] = test system: MCF7 breast adenocarcinoma; experiment: as above; type: cell-based; conditions: human line, continuous exposure 72 hours
Procedure: as §1

[13] = test system: P388 lymphoid neoplasm; experiment: as above; type: cell-based; conditions: mouse line, continuous exposure 72 hours
Procedure: as §1

[14] = test system: S180 sarcoma; experiment: as above; type: cell-based; conditions: S-180, mouse line, continuous exposure 72 hours
Procedure: as §1

[15] = test system: Sal. Typhosa CN512; experiment: Minimum inhibitory concentration vs microorganisms; type: cell-based; conditions: Wellcotest broth plus 7% lysed horse blood, 18 hours, 37°C
[16] = Brain distribution in mice (brain and plasma concentrations by HPLC); type: in vivo; conditions: female CD1 mice, 30 or 40 minutes after dose; Compound 1 17mg/kg i.v., Compound 2 10mg/kg i.v., piritrexim 200mg/kg i.p., trimetrexate 100mg/kg i.p.; average of several experiments
Procedure: Female CD1 mice were dosed with Compound 1 (17mg/kg, i.v.), Compound 2 (10mg/kg, i.v.), piritrexim (200mg/kg,i.p.) or trimetrexate (100mg/kg, i.p.). Brain and plasma samples were collected 30 or 40 minutes later. The drugs were extracted from the samples, and their concentrations were determined using HPLC. The numbers represent the average of several experiments.

[17] = test system: Str. Pyogenes CN10; experiment: Minimum inhibitory concentration vs microorganisms; conditions: Wellcotest broth plus 7% lysed horse blood, 18 hours, 37°C
Excerpt: (§2) The culture medium used in the test was Wellcotest broth to which lysed horse blood had been added at a final concentration of 7%. The assay was semi-automated employing 96-well Microtiter plates, and growth was monitored visually.

[18] = test system: Str. Faecalis CN478; experiment: Minimum inhibitory concentration vs microorganisms; conditions: Wellcotest broth plus 7% lysed horse blood, 18 hours, 37°C
Excerpt: as §2

[19] = test system: Str. Agalactiae CN1143; experiment: Minimum inhibitory concentration vs microorganisms; conditions: Wellcotest broth plus 7% lysed horse blood, 18 hours, 37°C
Excerpt: as §2

[20] = test system: Staph. Aureus CN491; experiment: Minimum inhibitory concentration vs microorganisms; conditions: Wellcotest broth plus 7% lysed horse blood, 18 hours, 37°C
Excerpt: as §2

[21] = test system: Bord. Bronchisep-tica CN385; experiment: Minimum inhibitory concentration vs microorganisms; conditions: Bord. Bronchiseptica CN385; Wellcotest broth plus 7% lysed horse blood, 18 hours, 37°C
Excerpt: as §2

[22] = test system: Past. Multocida ATCC6587; experiment: Minimum inhibitory concentration vs microorganisms; conditions: Wellcotest broth plus 7% lysed horse blood, 18 hours, 37°C
Excerpt: as §2

[23] = test system: Candida Albicans CN1863; experiment: Minimum inhibitory concentration vs microorganisms; conditions: Wellcotest broth plus 7% lysed horse blood, 18 hours, 37°C
Excerpt: as §2

[24] = test system: Myco. Smegmatis S3254; experiment: Minimum inhibitory concentration vs microorganisms; conditions: Wellcotest broth plus 7% lysed horse blood, 18 hours, 37°C
Excerpt: as §2

[25] = test system: Sal. Typhimurium S8587; experiment: Minimum inhibitory concentration vs microorganisms; conditions: Wellcotest broth plus 7% lysed horse blood, 18 hours, 37°C
Excerpt: as §2

[26] = test system: Shig. Flexneri CN6007; experiment: Minimum inhibitory concentration vs microorganisms; conditions: Wellcotest broth plus 7% lysed horse blood, 18 hours, 37°C
Excerpt: as §2

[27] = test system: Mycobacterium avium complex (MAC); experiment: In vitro activity vs Mycobacterium avium complex, radiometric respirometry (BACTEC); type: cell-based; conditions: seven (7) clinical isolates of Myco. avium
[28] = test system: Vibrio Cholerae ATCC14035; experiment: Minimum inhibitory concentration vs microorganisms; conditions: Wellcotest broth plus 7% lysed horse blood, 18 hours, 37°C
Excerpt: as §2

Row | SMILES | IC50 [2] | Ki [3] | EC50 [4] | EC50 [5] | EC50 [6] | EC50 [8] | EC50 [9] | EC50 [10] | EC50 [11] | EC50 [12] | M I C [15] | M I C [17] | M I C [18] | M I C [19] | M I C [20] | M I C [22] | M I C [23] | M I C [24] | M I C [25] | M I C [26] | further results
1 | CCC(CC)n1ccc2c3c(N)nc(N)nc3ccc21 [Compound 1, 1,3-Diamino-7-(1-ethylpropyl)-7H-pyrrolo(3,2-f)quinazoline] | < 1 nM | 0.019 nM | 0.7 nM | 45 nM | 8.4 nM | 3.5 nM | 1.2 nM | 70 nM | 2.2 nM | 38 nM | 0.1 µg/mL | 0.1 µg/mL | 0.1 µg/mL | 0.1 µg/mL | 0.1 µg/mL | 0.1 µg/mL | 0.3 µg/mL | 0.1 µg/mL | 0.1 µg/mL | 0.1 µg/mL | IC50 ([1]; C.albicans enzyme, read-out: DHFR I50 C.albicans): 4.5 nM; EC50 [7]: 1.9 nM; EC50 [13]: 2.7 nM; EC50 [14]: 4.8 nM; Tissue concentration brain [16]: 5.0 µg/g; Tissue concentration plasma [16]: 0.70 µg/mL; M I C [21]: 0.1 µg/mL
2 | CCC(CC)n1c(C)cc2c3c(N)nc(N)nc3ccc21 [Compound 2, 1,3-Diamino-7-(1-ethylpropyl)-8-methyl-7H-pyrrolo(3,2-f)quinazoline] | < 1 nM | 0.0014 nM | < 1 nM | 12 nM | 0.4 nM | 0.8 nM | 0.3 nM | 13 nM | 0.7 nM | 0.9 nM | 0.1 µg/mL | .0001 µg/mL | .0001 µg/mL | .0001 µg/mL | 0.01 µg/mL | .0001 µg/mL | 0.03 µg/mL | 0.001 µg/mL | 0.003 µg/mL | 0.003 µg/mL | IC50 [1]: < 1 nM; EC50 [13]: 0.3 nM; Tissue concentration brain [16]: 2.4 µg/g; Tissue concentration plasma [16]: 0.36 µg/mL; inhibition at 1 µg/mL ([27]; 1µg/ml, read-out: range of growth inhibition): 69 to 97%; inhibition at 5 µg/mL ([27]; 5µg/ml, read-out: range of growth inhibition): 97 to 99%; M I C ([27]; roughly translated from growth inhibition, read-out: average MIC): ~1.6 µg/mL; M I C [21]: 0.003 µg/mL; M I C [28]: .0001 µg/mL
3 | COc1cc(Cc2cnc(N)nc2N)cc(OC)c1OC [Trimethoprim, 2,4-diamino-5-(3,4,5-trimethoxybenzyl)pyrimidine, reference compound] |  |  |  |  |  |  |  |  |  |  | 0.1 µg/mL | 0.1 µg/mL | 0.1 µg/mL | 0.1 µg/mL | 0.1 µg/mL | 0.1 µg/mL | >100 µg/mL | 0.3 µg/mL | 0.1 µg/mL | 0.1 µg/mL | M I C [28]: 0.3 µg/mL
